Values quoted from earlier work, collected in patent US10585101B2, “Prostatic liquid biopsy for the detection of prostate cancer and benign prostatic hyperplasia” (WAVESENSE, INC., priority 2016, dated 2020).

Tested on: prostate cancer
Conditions: long term use

CC(C)(C)NC(=O)[C@H]1CC[C@H]2[C@@H]3CC[C@H]4NC(=O)C=C[C@]4(C)[C@H]3CC[C@]12C [finasteride, Finasteride]
risk of low-grade prostate cancer: decreased the risk of low-grade prostate cancer
